Experimental data taken from patent US20100267822A1, “AURONES AS ESTROGEN RECEPTOR MODULATORS AND THEIR USE IN SEX HORMONE DEPENDENT DISEASES” (priority 2009, published 2010).

How the values were obtained:
[1] = biological target: T1, Recombinant human ERalpha protein (Homo sapiens, UniProt P03372); assay: [3H] estradiol binding to recombinant human ERalpha (radioligand displacement, MDS cat No. 226010); conditions: test compound 10 μM; 0.5 nM [3H] estradiol; 2 hours at 25° C.; in comparison to the vehicle control (1% DMSO)
T1 construct: purchased MDS Pharma Services 226010; host or cells: insect Sf9 cells (printed as '519')
T1 sequence (P03372 1-595): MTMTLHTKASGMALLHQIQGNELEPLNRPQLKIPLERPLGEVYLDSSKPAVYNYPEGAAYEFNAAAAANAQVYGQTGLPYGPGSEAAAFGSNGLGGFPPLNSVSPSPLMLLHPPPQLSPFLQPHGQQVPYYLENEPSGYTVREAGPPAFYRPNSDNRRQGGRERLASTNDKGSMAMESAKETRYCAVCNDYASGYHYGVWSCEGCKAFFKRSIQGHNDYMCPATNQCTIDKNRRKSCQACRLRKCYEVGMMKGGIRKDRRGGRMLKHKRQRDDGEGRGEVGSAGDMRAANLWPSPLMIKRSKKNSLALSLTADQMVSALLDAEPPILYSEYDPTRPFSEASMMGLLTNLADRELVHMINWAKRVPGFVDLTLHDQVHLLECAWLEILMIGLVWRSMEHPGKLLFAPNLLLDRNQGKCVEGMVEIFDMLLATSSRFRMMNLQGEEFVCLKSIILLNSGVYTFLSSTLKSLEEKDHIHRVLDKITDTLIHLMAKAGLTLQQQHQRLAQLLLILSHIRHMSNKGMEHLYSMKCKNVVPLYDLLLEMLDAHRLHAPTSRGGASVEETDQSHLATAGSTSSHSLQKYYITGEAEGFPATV
Procedure: (§1) Recombinant human ERalpha protein isolated from insect 519 cells (MDS Pharma Services: cat No. 226010) was incubated with the test substance (dissolved in 1% DMSO) and 0.5 nM [^3H] estradiol for 2 hours at 25° C. in an incubation buffer (10 mM TrisHCl pH 7.4, 0.1% BSA, 10% Glycerol, 1 mM DTT). At the end of the incubation period, receptor-bound [^3H] estradiol was quantified. Stimulating or inhibiting effects equal or larger than 50% in comparison to vehicle control (1% DMSO) were considered to be significant. The final concentration of the test compound was 10 μM.
(§2) The assays described in Examples 4 and 5 were conducted by MDS (catalogue number 226010 for ERalpha and 226050 for ERbeta, respectively) following procedures established in literature (Obourn et al., Biochemistry 1993, 32: 6229-6236).

[2] = biological target: T2, Recombinant human ERbeta protein (Homo sapiens, UniProt Q92731); assay: [3H] estradiol binding to recombinant human ERbeta (radioligand displacement, MDS cat No. 226050); conditions: test compound 10 μM; 0.5 nM [3H] estradiol; 2 hours at 25° C.; in comparison to the vehicle control (1% DMSO)
T2 construct: purchased MDS Pharma Services 226050; host or cells: insect Sf9 cells
T2 sequence (Q92731 whole entry): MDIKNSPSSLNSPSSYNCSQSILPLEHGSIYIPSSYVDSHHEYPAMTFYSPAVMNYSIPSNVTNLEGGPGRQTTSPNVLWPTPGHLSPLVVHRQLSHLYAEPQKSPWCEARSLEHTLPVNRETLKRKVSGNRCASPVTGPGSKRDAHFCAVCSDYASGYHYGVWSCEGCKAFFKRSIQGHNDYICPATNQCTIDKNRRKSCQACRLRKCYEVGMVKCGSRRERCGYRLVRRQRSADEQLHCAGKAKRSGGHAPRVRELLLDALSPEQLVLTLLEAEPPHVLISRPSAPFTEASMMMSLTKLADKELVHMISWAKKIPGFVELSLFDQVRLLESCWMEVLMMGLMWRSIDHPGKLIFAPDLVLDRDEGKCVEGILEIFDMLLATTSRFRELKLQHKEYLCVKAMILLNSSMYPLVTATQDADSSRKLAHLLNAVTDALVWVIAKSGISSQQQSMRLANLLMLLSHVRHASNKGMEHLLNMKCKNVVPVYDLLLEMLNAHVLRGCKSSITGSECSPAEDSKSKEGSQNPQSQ
Procedure: as §1, with “ERbeta” for “ERalpha”, “Sf9” for “519”, “226050)” for “226010)”
as §2

SMILES: O=C1/C(=C/c2ccc(O)cc2O)Oc2cc(O)cc(O)c21 [SM29 (3), 2′,4,4′,6-Tetrahydroxyaurone]
- inhibition at 10 µM [1]: 2%
- inhibition at 10 µM [2]: 13%

SMILES: O=C1/C(=C/c2ccc(O)cc2)Oc2cc(O)cc(O)c21 [SM30 (3), 4,4′,6-Trihydroxyaurone]
- inhibition at 10 µM [1]: 18%
- inhibition at 10 µM [2]: 91%
